{"source": "patent US9995734B2", "about": "“Human T cell line assay for evaluating the immunologic identity of glatiramer acetate preparations” (Mylan Inc., priority 2013, dated 2018)", "test_system": "Donor 3 GMA T-Cell Lines", "assay": "ATP proliferation assay (CellTiter Glo), Donor 3 GMA T-cell lines, incl. reactivity to non-canonical GA peptides", "assay_type": "cell-based, human", "data": [{"substance": "poly (Glu-Ala-Tyr; 6:3:1) [GAT 631]", "values": [{"measurement": "Proliferation (luminescent ATP assay), Mean", "setting": "T-cell line 165-B5G, 10 μg/mL antigen, Day 55 of culturing, No Antigen Value 846", "value": 1645, "unit": "RLU"}, {"measurement": "Proliferation (luminescent ATP assay), Mean", "setting": "T-cell line 165-B5G, 10 μg/mL antigen, Day 81 of culturing, No Antigen Value 2432", "value": 4997, "unit": "RLU"}, {"measurement": "Proliferation (luminescent ATP assay), Mean", "setting": "T-cell line 165-B5G, 30 μg/mL antigen, Day 81 of culturing, No Antigen Value 2432", "value": 3637, "unit": "RLU"}, {"measurement": "Proliferation (luminescent ATP assay), Mean", "setting": "T-cell line 165-C5G, 1.25 μg/mL antigen, autologous B-LCL", "value": 435, "unit": "RLU"}, {"measurement": "Proliferation (luminescent ATP assay), Mean", "setting": "T-cell line 165-C5G, 2.5 μg/mL antigen, autologous B-LCL", "value": 465, "unit": "RLU"}, {"measurement": "Proliferation (luminescent ATP assay), Mean", "setting": "T-cell line 165-C5G, 5 μg/mL antigen, autologous B-LCL", "value": 504, "unit": "RLU"}, {"measurement": "Proliferation (luminescent ATP assay), Mean", "setting": "T-cell line 165-C5G, 10 μg/mL antigen, autologous B-LCL", "value": 423, "unit": "RLU"}, {"measurement": "Proliferation (luminescent ATP assay), Mean", "setting": "T-cell line 165-E7G, 1 μg/mL antigen, Day 81 of culturing, No Antigen Value 2145", "value": 4043, "unit": "RLU"}, {"measurement": "Proliferation (luminescent ATP assay), Mean", "setting": "T-cell line 165-E7G, 1.25 μg/mL antigen, autologous B-LCL, Day 55", "value": 2629, "unit": "RLU"}, {"measurement": "Proliferation (luminescent ATP assay), Mean", "setting": "T-cell line 165-E7G, 2.5 μg/mL antigen, autologous B-LCL, Day 55", "value": 2827, "unit": "RLU"}, {"measurement": "Proliferation (luminescent ATP assay), Mean", "setting": "T-cell line 165-E7G, 3 μg/mL antigen, Day 81 of culturing, No Antigen Value 2145", "value": 6457, "unit": "RLU"}, {"measurement": "Proliferation (luminescent ATP assay), Mean", "setting": "T-cell line 165-E7G, 5 μg/mL antigen, autologous B-LCL, Day 55", "value": 2950, "unit": "RLU"}, {"measurement": "Proliferation (luminescent ATP assay), Mean", "setting": "T-cell line 165-E7G, 10 μg/mL antigen, Day 81 of culturing, No Antigen Value 2145", "value": 5499, "unit": "RLU"}, {"measurement": "Proliferation (luminescent ATP assay), Mean", "setting": "T-cell line 165-E7G, 10 μg/mL antigen, autologous B-LCL, Day 55", "value": 3877, "unit": "RLU"}, {"measurement": "Proliferation (luminescent ATP assay), Mean", "setting": "T-cell line 165-E7G, 30 μg/mL antigen, Day 81 of culturing, No Antigen Value 2145", "value": 4178, "unit": "RLU"}, {"measurement": "Proliferation (luminescent ATP assay), Mean", "setting": "T-cell line 165-E9G, 1 μg/mL antigen, Day 50 of culturing, No Antigen Value 1742", "value": 1482, "unit": "RLU"}, {"measurement": "Proliferation (luminescent ATP assay), Mean", "setting": "T-cell line 165-E9G, 1.25 μg/mL antigen, autologous B-LCL", "value": 122, "unit": "RLU"}, {"measurement": "Proliferation (luminescent ATP assay), Mean", "setting": "T-cell line 165-E9G, 2.5 μg/mL antigen, autologous B-LCL", "value": 175, "unit": "RLU"}, {"measurement": "Proliferation (luminescent ATP assay), Mean", "setting": "T-cell line 165-E9G, 3 μg/mL antigen, Day 50 of culturing, No Antigen Value 1742", "value": 1593, "unit": "RLU"}, {"measurement": "Proliferation (luminescent ATP assay), Mean", "setting": "T-cell line 165-E9G, 5 μg/mL antigen, autologous B-LCL", "value": 207, "unit": "RLU"}, {"measurement": "Proliferation (luminescent ATP assay), Mean", "setting": "T-cell line 165-E9G, 10 μg/mL antigen, autologous B-LCL", "value": 179, "unit": "RLU"}, {"measurement": "Proliferation (luminescent ATP assay), Mean", "setting": "T-cell line 165-E9G, 30 μg/mL antigen, Day 50 of culturing, No Antigen Value 1742", "value": 1382, "unit": "RLU"}, {"measurement": "Proliferation (luminescent ATP assay), Mean", "setting": "T-cell line 165-E9G, 10 μpg/mL antigen, Day 50 of culturing, No Antigen Value 1742", "value": 1454, "unit": "RLU"}, {"measurement": "Proliferation (luminescent ATP assay), Mean", "setting": "T-cell line 165-F5G, 1.25 μg/mL antigen, autologous B-LCL", "value": 118, "unit": "RLU"}, {"measurement": "Proliferation (luminescent ATP assay), Mean", "setting": "T-cell line 165-F5G, 2.5 μg/mL antigen, autologous B-LCL", "value": 160, "unit": "RLU"}, {"measurement": "Proliferation (luminescent ATP assay), Mean", "setting": "T-cell line 165-F5G, 5 μg/mL antigen, autologous B-LCL", "value": 106, "unit": "RLU"}, {"measurement": "Proliferation (luminescent ATP assay), Mean", "setting": "T-cell line 165-F5G, 10 μg/mL antigen, autologous B-LCL", "value": 130, "unit": "RLU"}, {"measurement": "Proliferation (luminescent ATP assay), Mean", "setting": "T-cell line 165-F10G, 1 μg/mL antigen, Day 50 of culturing, No Antigen Value 3752", "value": 3755, "unit": "RLU"}, {"measurement": "Proliferation (luminescent ATP assay), Mean", "setting": "T-cell line 165-F10G, 1.25 μg/mL antigen, autologous B-LCL", "value": 948, "unit": "RLU"}, {"measurement": "Proliferation (luminescent ATP assay), Mean", "setting": "T-cell line 165-F10G, 2.5 μg/mL antigen, autologous B-LCL", "value": 1080, "unit": "RLU"}, {"measurement": "Proliferation (luminescent ATP assay), Mean", "setting": "T-cell line 165-F10G, 3 μg/mL antigen, Day 50 of culturing, No Antigen Value 3752", "value": 3543, "unit": "RLU"}, {"measurement": "Proliferation (luminescent ATP assay), Mean", "setting": "T-cell line 165-F10G, 5 μg/mL antigen, autologous B-LCL", "value": 1024, "unit": "RLU"}, {"measurement": "Proliferation (luminescent ATP assay), Mean", "setting": "T-cell line 165-F10G, 10 μg/mL antigen, Day 50 of culturing, No Antigen Value 3752", "value": 3702, "unit": "RLU"}, {"measurement": "Proliferation (luminescent ATP assay), Mean", "setting": "T-cell line 165-F10G, 10 μg/mL antigen, autologous B-LCL", "value": 944, "unit": "RLU"}, {"measurement": "Proliferation (luminescent ATP assay), Mean", "setting": "T-cell line 165-F10G, 30 μg/mL antigen, Day 50 of culturing, No Antigen Value 3752", "value": 3794, "unit": "RLU"}, {"measurement": "Proliferation (luminescent ATP assay), Mean", "setting": "T-cell line 165-H11G, 1 μg/mL antigen, Day 50 of culturing, No Antigen Value 1485", "value": 2413, "unit": "RLU"}, {"measurement": "Proliferation (luminescent ATP assay), Mean", "setting": "T-cell line 165-H11G, 1.25 μg/mL antigen, autologous B-LCL", "value": 43, "unit": "RLU"}, {"measurement": "Proliferation (luminescent ATP assay), Mean", "setting": "T-cell line 165-H11G, 2.5 μg/mL antigen, autologous B-LCL", "value": 290, "unit": "RLU"}, {"measurement": "Proliferation (luminescent ATP assay), Mean", "setting": "T-cell line 165-H11G, 3 μg/mL antigen, Day 50 of culturing, No Antigen Value 1485", "value": 2969, "unit": "RLU"}, {"measurement": "Proliferation (luminescent ATP assay), Mean", "setting": "T-cell line 165-H11G, 5 μg/mL antigen, autologous B-LCL", "value": 297, "unit": "RLU"}, {"measurement": "Proliferation (luminescent ATP assay), Mean", "setting": "T-cell line 165-H11G, 10 μg/mL antigen, Day 50 of culturing, No Antigen Value 1485", "value": 2995, "unit": "RLU"}, {"measurement": "Proliferation (luminescent ATP assay), Mean", "setting": "T-cell line 165-H11G, 10 μg/mL antigen, autologous B-LCL", "value": 305, "unit": "RLU"}, {"measurement": "Proliferation (luminescent ATP assay), Mean", "setting": "T-cell line 165-H11G, 30 μg/mL antigen, Day 50 of culturing, No Antigen Value 1485", "value": 3115, "unit": "RLU"}]}]}
